Measurements reported in US12247032B2, “Substituted pyrazolo[1,5-a]pyrimidines as inhibitors of JAK kinases” (Genentech, Inc., priority 2019, dated 2025).

How the values were obtained:
[1] = target: T1, recombinant human JAK1 kinase domain protein (Residues 854-1154) (Homo sapiens, UniProt P23458); assay: JAK1 biochemical assay (microfluidic mobility shift, peptide phosphorylation); conditions: 25 μM ATP, 1 nM total JAK1; Ki calculated from Ki app (tight-binding, competitive); read-out: Biochem JAK1 Ki
T1 construct: human JAK1 kinase domain protein (Residues 854-1154); purchased Proteros Biostructures GmbH (Martinsried, Germany); host or cells: insect cells
T1 sequence (P23458 854-1154): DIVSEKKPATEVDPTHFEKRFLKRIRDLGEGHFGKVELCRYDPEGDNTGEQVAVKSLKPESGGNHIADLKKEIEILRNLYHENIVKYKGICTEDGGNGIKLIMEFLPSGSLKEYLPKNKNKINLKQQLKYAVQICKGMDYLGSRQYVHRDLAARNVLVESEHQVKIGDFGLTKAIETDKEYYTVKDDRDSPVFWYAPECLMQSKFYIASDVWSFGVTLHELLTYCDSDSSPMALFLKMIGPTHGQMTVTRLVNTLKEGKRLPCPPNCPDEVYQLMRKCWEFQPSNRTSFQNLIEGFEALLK
Procedure: (§1) The in vitro biochemical assays quantify JAK-catalyzed phosphorylation of a synthetic peptide, as detected using a LabChip® EZ Reader II microfluidic mobility shift instrument (PerkinElmer; Waltham, MA). The substrate peptide Y-1B has the sequence 5-FAM-VALVDGYFRLTT-NH2. Y-1B is fluorescently labeled on the N-terminus with 5-FAM (5-carboxyfluorescein) and contains a single tyrosine residue (Y) that can be phosphorylated by JAK activity. The substrate peptide stock is prepared in DMSO at 5 mM. Purified recombinant human JAK1 kinase domain protein (Residues 854-1154) was expressed in insect cells and procured from Proteros Biostructures GmbH (Martinsried, Germany). Recombinant human JAK2 kinase domain protein (Residues 812-1132) was expressed in insect cells and purified at Genentech, Inc. (South San Francisco, CA).
(§2) The kinase reaction mixtures contained 100 mM 4-(2-hydroxyethyl)-1-piperazineethanesulfonic acid (HEPES) buffer (pH 7.2), 10 mM magnesium chloride, 0.015% Brij® 35, 4 mM dithiothreitol, 1.5 μM Y-1B peptide substrate, 25 μM adenosine triphosphate (ATP), 1 nM total JAK1 or 0.2 nM total JAK2, and up to 1000 nM test compound in a final concentration of 2% (volume to volume [v/v]) DMSO. In each titration experiment, test compound was tested in duplicate at each of the twelve concentrations. Blank reactions contained ATP, peptide, and DMSO, but no JAK or test compound, whereas uninhibited control reactions contained ATP, peptide, JAK, and DMSO, but no test compound.
(§3) Peptide plus ATP mixture (24 μL) was added to 1 μL of test compound in DMSO (or DMSO alone). The reactions were initiated by adding 25 μL of JAK enzyme to the inhibitor/peptide/ATP mixture before thoroughly mixing the resultant solution. Reactions were incubated at room temperature (22° C.-23° C.) in a final volume of 50 μL per well in 384-well plates. After a 30-minute incubation, the reactions were stopped by adding 25 μL of 150 mM ethylenediaminetetraacetic acid in 100 mM HEPES buffer (pH 7.2) containing 0.015% Brij 35 to each well.
(§4) In each reaction, the residual Y-1B substrate and the phospho-peptide product generated were separated using the EZ Reader 1 instrument. Electrophoretic separation of molecules of product from molecules of substrate was achieved using downstream and upstream voltages of −500 and −2600 V, respectively, at an operating pressure of −1.3 psi. The 5-FAM group present on both the substrate and product peptides was excited at 488 nm, the fluorescence was detected at 530 nm, and the peak heights were reported.
(§5) The extent (or percent) of conversion of substrate to product was calculated from the corresponding peak heights in the electropherogram using HTS Well Analyzer software, Version 5.2 (PerkinElmer), and the following equation (Equation 1): % conversion=[P[…](S+P)]×100 Equation 1 where S and P represent the peak heights of the substrate and product, respectively. After any baseline signal from blank wells containing no JAK was subtracted from the signal of all test wells, the % conversion data were converted to fractional activity as shown in Equation 2, where νi and νo are the % conversion in the presence and absence of test compound, respectively. The % conversion observed in the uninhibited control reactions containing JAK and DMSO vehicle, but no test compound, was defined to have fractional activity=1 (with no inhibitor present, νi=νo), whereas blank wells with no JAK were defined as having fractional activity=0. Fractional activity was plotted against test compound concentration and the data were fitted using XLfit software (IDBS; Guildford, United Kingdom) to a tight-binding apparent inhibition constant (Ki^app) quadratic equation (see Equation 2) (Williams J W, Morrison J F. The kinetics of reversible tight-binding inhibition. Methods Enymol 1979; 63:437-67), which was used to calculate fractional activity and Ki^app […]

[2] = target: T2, Recombinant human JAK2 kinase domain protein (Residues 812-1132) (Homo sapiens, UniProt O60674); assay: JAK2 biochemical assay (microfluidic mobility shift, peptide phosphorylation); conditions: 25 μM ATP, 0.2 nM total JAK2; Ki calculated from Ki app (tight-binding, competitive); read-out: Biochem JAK2 Ki
T2 construct: human JAK2 kinase domain protein (Residues 812-1132); made in house; host or cells: insect cells
T2 sequence (O60674 812-1132): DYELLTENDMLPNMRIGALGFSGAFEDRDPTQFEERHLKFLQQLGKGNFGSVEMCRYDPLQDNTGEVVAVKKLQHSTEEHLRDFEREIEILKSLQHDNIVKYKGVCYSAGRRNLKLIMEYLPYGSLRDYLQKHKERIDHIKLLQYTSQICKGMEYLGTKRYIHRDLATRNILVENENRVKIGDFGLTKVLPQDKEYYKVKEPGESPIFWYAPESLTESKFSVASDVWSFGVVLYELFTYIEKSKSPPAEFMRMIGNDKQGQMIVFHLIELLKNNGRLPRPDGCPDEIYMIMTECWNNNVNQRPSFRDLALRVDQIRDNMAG
Procedure: as §1, §2, §3, §4, §5

[3] = system: JAK1 (IL-13-stimulated STAT6 phosphorylation in BEAS-2B cells); assay: P-STAT6 BEAS-2B+IL-13 cell assay; format: cell-based, human; conditions: Homo sapiens, BEAS-2B, 1 h, 1 hour compound, IL-13 15 minutes, IC50 by four-parameter fit, read-out: Cellular JAK1 PSTAT6 BEAS2B + IL13
Procedure: In order to study the effect of JAK1 inhibitors in a cell line that is relevant to the cell biology of human asthma, an IL-13-stimulated STAT6 phosphorylation assay in the human lung bronchial epithelial BEAS-2B cell line was developed.
BEAS-2B cells (ATCC® CRL-9609™) were grown in Bronchial Epithelial Growth Medium (BEGM) (Lonza Catalog No. CC-3170; Walkersville, MD; or PromoCell Catalog No. C-21060; Heidelberg, Germany). Test compound stock solutions (0.5 mM in DMSO) were serially diluted 1:2 in DMSO to generate a 10-point concentration curve (at 500× test concentration), which was further diluted by a 50-fold dilution step in BEGM to generate a 10× concentration curve (in 2% DMSO). Cells were plated at 100,000 cells/well in 200 μL of BEGM in 96-well plates and incubated for 48 hours at 37° C. in a humidified incubator. Medium was aspirated from the cells and replaced with 70 μL of fresh BEGM. Diluted test compound (10 μL; or 2% DMSO in assay medium) was added to the cells, and the plates were incubated for 1 hour at 37° C. in a humidified incubator. Twenty μL of 250 ng/mL human recombinant IL-13 (Bio Techne Catalog No. 213-ILB) was then added to the cells and incubated for 15 minutes at 37° C. Medium was aspirated from the cells and 60 μL of ice-cold 1×cell lysis buffer (Cell Signaling Technologies; Catalog No. 9803S) containing 1 mM PMSF was added to the cells. Assay plates were incubated at −80° C. for at least 1 hour. P-STAT6 was measured by coating GAR plates (MSD; Catalog No. L45RA-1) with rabbit anti-human total STAT6 antibody (Cell Signaling Technologies; Catalog No. 9362S), incubating the cell lysates in the coated plates overnight at 4° C., and then detecting with mouse anti-phospho-STAT6 (Tyr641) Clone 16E12 antibody (Millipore; Catalog No. 05-590, custom labeled by MSD with SULFO-tag) using standard MSD plate processing, washing, and detection protocols. Plates were read on the MESO SECTOR S600.
Data analysis was performed by subtracting negative control values from all wells and determining percent of control using the positive control values; the IC50 was determined with a four-parameter logistic fit model as shown in Equation 4.

Compound | Ki [1] | Ki [2] | IC50 [3]
O=C(Nc1cn(Cc2nnnn2CCN2CCOCC2)nc1-c1cc(Cl)ccc1OC(F)F)c1cnn2cccnc12 [Example 5, N-[3-[5-chloro-2-(difluoromethoxy)phenyl]-1-[[1-(2-morpholinoethyl)tetrazol-5-yl]methyl]pyrazol-4-yl]pyrazolo[1,5-a]pyrimidine-3-carboxamide] | 0.4 nM | 0.23 nM | 15 nM
O=C(Nc1cn(Cc2nnn(C3CCN(C4CCOCC4)CC3)n2)nc1-c1cc(Cl)ccc1OC(F)F)c1cnn2cccnc12 [Example 9, N-[3-[5-chloro-2-(difluoromethoxy)phenyl]-1-[[2-(1-tetrahydropyran-4-yl-4-piperidyl)tetrazol-5-yl]methyl]pyrazol-4-yl]pyrazolo[1,5-a]pyrimidine-3-carboxamide] | 0.48 nM | 0.24 nM | 13 nM
O=C(Nc1cn(Cc2nnnn2C2CCNCC2)nc1-c1cc(OC(F)F)ccc1OC(F)F)c1cnn2cccnc12 [Example 24, N-[3-[2,5-bis(difluoromethoxy)phenyl]-1-[[1-(4-piperidyl)tetrazol-5-yl]methyl]pyrazol-4-yl]pyrazolo[1,5-a]pyrimidine-3-carboxamide] | 0.83 nM | 0.91 nM | 470 nM
NCCN1CCC(n2nnc(Cn3cc(NC(=O)c4cnn5cccnc45)c(-c4cc(OC(F)F)ccc4OC(F)F)n3)n2)CC1 [Example 25, N-[1-[[2-[1-(2-aminoethyl)-4-piperidyl]tetrazol-5-yl]methyl]-3-[2,5-bis(difluoromethoxy)phenyl]pyrazol-4-yl]pyrazolo[1,5-a]pyrimidine-3-carboxamide] | 0.77 nM | 0.8 nM | 300 nM
CN1CC(Cn2nnc(Cn3cc(NC(=O)c4cnn5cccnc45)c(-c4cc(OC(F)F)ccc4OC(F)F)n3)n2)C1 [Example 32, N-[3-[2,5-bis(difluoromethoxy)phenyl]-1-[[2-[(1-methylazetidin-3-yl)methyl]tetrazol-5-yl]methyl]pyrazol-4-yl]pyrazolo[1,5-a]pyrimidine-3-carboxamide] | 0.72 nM | 0.62 nM | 22 nM
CN1CC(Cn2nnnc2Cn2cc(NC(=O)c3cnn4cccnc34)c(-c3cc(OC(F)F)ccc3OC(F)F)n2)C1 [Example 33, N-[3-[2,5-bis(difluoromethoxy)phenyl]-1-[[1-[(1-methylazetidin-3-yl)methyl]tetrazol-5-yl]methyl]pyrazol-4-yl]pyrazolo[1,5-a]pyrimidine-3-carboxamide] | 0.55 nM | 0.56 nM | 51 nM
CNCCN1CC(n2nnc(Cn3cc(NC(=O)c4cnn5cccnc45)c(-c4cc(OC(F)F)ccc4OC(F)F)n3)n2)C1 [Example 34, N-[3-[2,5-bis(difluoromethoxy)phenyl]-1-[[2-[1-[2-(methylamino)ethyl]azetidin-3-yl]tetrazol-5-yl]methyl]pyrazol-4-yl]pyrazolo[1,5-a]pyrimidine-3-carboxamide] | 0.4 nM | 0.29 nM | 180 nM
CSc1ccc(OC(F)F)c(-c2nn(Cc3nnn(CCN)n3)cc2NC(=O)c2cnn3cccnc23)c1 [Example 35, N-[1-[[2-(2-aminoethyl)tetrazol-5-yl]methyl]-3-[2-(difluoromethoxy)-5-methylsulfanyl-phenyl]pyrazol-4-yl]pyrazolo[1,5-a]pyrimidine-3-carboxamide] | 0.37 nM | 0.18 nM | 13 nM
CSc1ccc(OC(F)F)c(-c2nn(Cc3nnn(CCN(C)C)n3)cc2NC(=O)c2cnn3cccnc23)c1 [Example 36, N-[3-[2-(difluoromethoxy)-5-methylsulfanyl-phenyl]-1-[[2-[2-(dimethylamino)ethyl]tetrazol-5-yl]methyl]pyrazol-4-yl]pyrazolo[1,5-a]pyrimidine-3-carboxamide] | 0.37 nM | 0.22 nM | 17 nM
CN1CCN(CCn2nnc(Cn3cc(NC(=O)c4cnn5cccnc45)c(-c4cc(Cl)ccc4OC(F)F)n3)n2)CC1 [Example 39, N-[3-[5-chloro-2-(difluoromethoxy)phenyl]-1-[[2-[2-(4-methylpiperazin-1-yl)ethyl]tetrazol-5-yl]methyl]pyrazol-4-yl]pyrazolo[1,5-a]pyrimidine-3-carboxamide] | 1.3 nM | 0.69 nM | 36 nM
O=C(Nc1cn(Cc2nnn(CCN3CCNCC3)n2)nc1-c1cc(Cl)ccc1OC(F)F)c1cnn2cccnc12 [Example 40, N-[3-[5-chloro-2-(difluoromethoxy)phenyl]-1-[[2-(2-piperazin-1-ylethyl)tetrazol-5-yl]methyl]pyrazol-4-yl]pyrazolo[1,5-a]pyrimidine-3-carboxamide] | 0.78 nM | 0.68 nM | 86 nM
CSc1ccc(OC(F)F)c(-c2nn(Cc3nnnn3CCN(C)C)cc2NC(=O)c2cnn3cccnc23)c1 [Example 41, N-[3-[2-(difluoromethoxy)-5-methylsulfanyl-phenyl]-1-[[1-[2-(dimethylamino)ethyl]tetrazol-5-yl]methyl]pyrazol-4-yl]pyrazolo[1,5-a]pyrimidine-3-carboxamide] | 0.32 nM | 0.2 nM | 14 nM
